Measurements taken from US11702422B2, “Imidazopyridazines as modulators of IL-17” (Janssen Pharmaceutica NV, priority 2020, dated 2023).
Where a name gives a salt, the structure may show the parent alone.

Tests used:
[1] = test system: IL-17A-induced G-CSF production in human normal keratinocyte (NHK); test: NHK Assay: IL-17A-induced G-CSF production in human normal keratinocytes; assay type: cell-based; details: Homo sapiens, Keratinocyte, 24 h, adult normal human keratinocytes, IL-17A 5 ng/mL, simple average if tested more than once
In short: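 Inhibition of IL-17A-driven G-CSF release is measured in adult keratinocytes stimulated for 24 h at 37° C with 5 ng/mL human IL-17A that had been pre-incubated with compound for 1 h. IC50 comes from HTRF G-CSF levels; cell viability is checked in parallel by luminescent ATP assay.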

[2] = biological target: IL-17A(FLAG-Tagged): IL-17RA(His-Tagged) (Homo sapiens, UniProt Q16552, K93Q); test: IL-17A(FLAG-Tagged): IL-17RA(His-Tagged) Binding Disruption Eu-HTRF Assay; details: IL-17A/IL-17RA binding disruption, simple average if tested more than once
Chain of UniProt Q16552 (Q16552 with tags, fused parts or gaps K93Q): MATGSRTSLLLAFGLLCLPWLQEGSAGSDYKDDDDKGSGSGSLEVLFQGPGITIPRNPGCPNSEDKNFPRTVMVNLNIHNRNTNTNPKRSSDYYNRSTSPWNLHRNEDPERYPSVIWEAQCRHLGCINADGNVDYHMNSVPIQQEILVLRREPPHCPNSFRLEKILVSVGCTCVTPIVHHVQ
In short: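 IC50 comes from a one-site competition fit of the HTRF 665/620 nm ratio. Compound dilutions (2-fold, 22 points) were held 1 h rt with FLAG-tagged IL-17A dimer, then His-tagged IL-17RA plus Eu-cryptate anti-FLAG and D2 anti-His antibodies were added for 2 h rt.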

Structure (SMILES)	IC50 [2]	IC50 [1]
Cc1nonc1C(=O)N[C@H](c1cn2ncc([C@H](NC(=O)CC(C)C(F)(F)F)C3CC3)cc2n1)C1CCC(F)(F)CC1 (single isomer, unassigned) [Example 243, N—((S)-(7-((R)-Cyclopropyl((R*)-4,4,4-trifluoro-3-methylbutanamido)methyl)imidazo[1,2-b]pyridazin-2-yl)(4,4-difluorocyclohexyl)methyl)-4-methyl-1,2,5-oxadiazole-3-carboxamide]	89 nM	270 nM
Cc1nonc1C(=O)N[C@H](c1cn2ncc([C@H](NC(=O)COC(F)F)C3CC3)cc2n1)C1CCC(F)(F)CC1 [Example 278, N—((S)-(7-((R)-Cyclopropyl(2-(difluoromethoxy)acetamido)methyl)imidazo[1,2-b]pyridazin-2-yl)(4,4-difluorocyclohexyl)methyl)-4-methyl-1,2,5-oxadiazole-3-carboxamide]	1100 nM	2500 nM
Cc1nonc1C(=O)N[C@H](c1cn2ncc([C@H](NC(=O)[C@H]3CC[C@H]3F)C3CC3)cc2n1)C1CCC(F)(F)CC1 (relative stereo) [Example 336, N—((S)-(7-((R)-Cyclopropyl((1R*,2R*)-2-fluorocyclobutane-1-carboxamido)methyl)imidazo[1,2-b]pyridazin-2-yl)(4,4-difluorocyclohexyl)methyl)-4-methyl-1,2,5-oxadiazole-3-carboxamide]	5000 nM	> 20000 nM
O=C(CCC(F)(F)F)N[C@@H](c1cnn2cc([C@@H](NC(=O)c3cccc(OCC(F)F)n3)C3CCC(F)(F)CC3)nc2c1)C1CC1 [Example 201, N—((S)-(7-((R)-Cyclopropyl(4,4,4-trifluorobutanamido)methyl)imidazo[1,2-b]pyridazin-2-yl)(4,4-difluorocyclohexyl)methyl)-6-(2,2-difluoroethoxy)picolinamide]	470 nM	2200 nM
O=C(CCC(F)(F)F)N[C@@H](c1cnn2cc([C@@H](NC(=O)c3cnn(CCOC(F)(F)F)c3)C3CCC(F)(F)CC3)nc2c1)C1CC1 [Example 36, N—((S)-(7-((R)-Cyclopropyl(4,4,4-trifluorobutanamido)methyl)imidazo[1,2-b]pyridazin-2-yl)(4,4-difluorocyclohexyl)methyl)-1-(2-(trifluoromethoxy)ethyl)-1H-pyrazole-4-carboxamide]	140 nM	120 nM
O=C(CCC(F)(F)F)N[C@@H](c1cnn2cc([C@@H](NC(=O)[C@H]3C[C@@H]3F)C3CCC(F)(F)CC3)nc2c1)C1CC1 [Example 98, (1R,2S)—N—((S)-(7-((R)-Cyclopropyl(4,4,4-trifluorobutanamido)methyl)imidazo[1,2-b]pyridazin-2-yl)(4,4-difluorocyclohexyl)methyl)-2-fluorocyclopropane-1-carboxamide]	770 nM	2300 nM
O=C(CCC(F)(F)F)N[C@@H](c1cnn2cc([C@@H](NC(=O)[C@H]3C[C@@H]3C(F)(F)F)C3CCC(F)(F)CC3)nc2c1)C1CC1 (relative stereo) [Example 149, (Trans-1S*,2S*)—N—((S)-(7-((R)-Cyclopropyl(4,4,4-trifluorobutanamido)methyl)imidazo[1,2-b]pyridazin-2-yl)(4,4-difluorocyclohexyl)methyl)-2-(trifluoromethyl)cyclopropane-1-carboxamide]	240 nM	510 nM
CC(C)(O)c1nonc1C(=O)N[C@H](c1cn2ncc([C@H](NC(=O)CC3CC(F)(F)C3)C3CC3)cc2n1)C1CCC(F)(F)CC1 [Example 410, N—((S)-(7-((R)-Cyclopropyl(2-(3,3-difluorocyclobutyl)acetamido)methyl)imidazo[1,2-b]pyridazin-2-yl)(4,4-difluorocyclohexyl)methyl)-4-(2-hydroxypropan-2-yl)-1,2,5-oxadiazole-3-carboxamide]	120 nM	230 nM
O=C(N[C@H](c1cn2ncc(CNC(=O)[C@@H]3NCCC[C@H]3C(F)(F)F)cc2n1)C1CCCCC1)c1ccccc1 (relative stereo) [Example 1, (Trans-2R*,3R*)—N-((2-((S)-benzamido(cyclohexyl)methyl)imidazo[1,2-b]pyridazin-7-yl)methyl)-3-(trifluoromethyl)piperidine-2-carboxamide hydrochloride]	180 nM	300 nM
CC(C)n1nccc1C(=O)N[C@@H](COC(C)(C)C(F)(F)F)c1cn2ncc([C@H](NC(=O)CC3CC(F)(F)C3)C3CC3)cc2n1 [Example 320, N—((R)-1-(7-((R)-Cyclopropyl(2-(3,3-difluorocyclobutyl)acetamido)methyl)imidazo[1,2-b]pyridazin-2-yl)-2-((1,1,1-trifluoro-2-methylpropan-2-yl)oxy)ethyl)-1-isopropyl-1H-pyrazole-5-carboxamide]	74 nM	62 nM
O=C(CCC(F)(F)F)N[C@@H](c1cnn2cc([C@@H](NC(=O)c3cnn(CC4CCC4(F)F)n3)C3CCC(F)(F)CC3)nc2c1)C1CC1 (some centres unmarked) [Example 4]	100 nM	370 nM
O=C(CCC(F)(F)F)N[C@@H](c1cnn2cc([C@@H](NC(=O)c3cncc(OCC(F)F)c3)C3CCC(F)(F)CC3)nc2c1)C1CC1 [Example 183, N—((S)-(7-((R)-Cyclopropyl(4,4,4-trifluorobutanamido)methyl)imidazo[1,2-b]pyridazin-2-yl)(4,4-difluorocyclohexyl)methyl)-5-(2,2-difluoroethoxy)nicotinamide]	69 nM	520 nM
O=C(CCC(F)(F)F)N[C@@H](c1cnn2cc([C@@H](NC(=O)c3cnnn3CCC(F)F)C3CCC(F)(F)CC3)nc2c1)C1CC1 [Example 49, N—((S)-(7-((R)-Cyclopropyl(4,4,4-trifluorobutanamido)methyl)imidazo[1,2-b]pyridazin-2-yl)(4,4-difluorocyclohexyl)methyl)-1-(3,3-difluoropropyl)-1H-1,2,3-triazole-5-carboxamide]	95 nM	110 nM
CC(C)n1nccc1C(=O)N[C@H](c1cn2ncc([C@@H](NC(=O)C[C@H]3CC3(F)F)C3CC3)cc2n1)C1CCC(F)(F)CC1 (single isomer, unassigned) [Example 138]	780 nM	1300 nM

Second part, led by results:

IC50 [2]	Structure (SMILES)	IC50 [1]
84 nM	Cc1nocc1C(=O)N[C@H](c1cn2ncc([C@H](NC(=O)CCC(F)(F)F)C3CC3)cc2n1)C1CCC(F)(F)CC1 [Example 79, N—((S)-(7-((R)-Cyclopropyl(4,4,4-trifluorobutanamido)methyl)imidazo[1,2-b]pyridazin-2-yl)(4,4-difluorocyclohexyl)methyl)-3-methylisoxazole-4-carboxamide]	150 nM
180 nM	Cc1nocc1C(=O)N[C@H](c1cn2ncc(C(NC(=O)CCC(F)(F)F)C(C)C)cc2n1)C1CCC(F)(F)CC1 (mixture of isomers) [Example 134, N—((S)-(4,4-Difluorocyclohexyl)(7-(2-methyl-1-(4,4,4-trifluorobutanamido)propyl)imidazo[1,2-b]pyridazin-2-yl)methyl)-3-methylisoxazole-4-carboxamide]	110 nM
4600 nM	Cc1cc(C(=O)N[C@H](c2cn3ncc([C@H](NC(=O)CCC(F)(F)F)C4CC4)cc3n2)C2CCC(F)(F)CC2)cnn1 [Example 418, N—((S)-(7-((R)-Cyclopropyl(4,4,4-trifluorobutanamido)methyl)imidazo[1,2-b]pyridazin-2-yl)(4,4-difluorocyclohexyl)methyl)-6-methylpyridazine-4-carboxamide]	> 20000 nM
130 nM	CCn1ncnc1C(=O)N[C@H](c1cn2ncc([C@H](NC(=O)CCC(F)(F)F)C3CC3)cc2n1)C1CCC(F)(F)CC1 [Example 106, N—((S)-(7-((R)-Cyclopropyl(4,4,4-trifluorobutanamido)methyl)imidazo[1,2-b]pyridazin-2-yl)(4,4-difluorocyclohexyl)methyl)-1-ethyl-1H-1,2,4-triazole-5-carboxamide]	830 nM
15000 nM	Cc1cncc(C(=O)N[C@H](c2cn3ncc([C@H](NC(=O)CCC(F)(F)F)C4CC4)cc3n2)C2CCC(F)(F)CC2)n1 [Example 220, N—((S)-(7-((R)-Cyclopropyl(4,4,4-trifluorobutanamido)methyl)imidazo[1,2-b]pyridazin-2-yl)(4,4-difluorocyclohexyl)methyl)-6-methylpyrazine-2-carboxamide]	> 20000 nM
120 nM	COc1conc1C(=O)N[C@H](c1cn2ncc([C@H](NC(=O)CCC(F)(F)F)C3CC3)cc2n1)C1CCC(F)(F)CC1 [Example 372, N—((S)-(7-((R)-Cyclopropyl(4,4,4-trifluorobutanamido)methyl)imidazo[1,2-b]pyridazin-2-yl)(4,4-difluorocyclohexyl)methyl)-4-methoxyisoxazole-3-carboxamide]	740 nM
55 nM	CC(C)c1conc1C(=O)N[C@H](c1cn2ncc([C@H](NC(=O)CCC(F)(F)F)C3CC3)cc2n1)C1CCC(F)(F)CC1 [Example 378, N—((S)-(7-((R)-Cyclopropyl(4,4,4-trifluorobutanamido)methyl)imidazo[1,2-b]pyridazin-2-yl)(4,4-difluorocyclohexyl)methyl)-4-isopropylisoxazole-3-carboxamide]	95 nM
320 nM	O=C(CCC(F)(F)F)N[C@@H](c1cnn2cc([C@@H](NC(=O)c3cncnc3)C3CCC(F)(F)CC3)nc2c1)C1CC1 [Example 204, N—((S)-(7-((R)-Cyclopropyl(4,4,4-trifluorobutanamido)methyl)imidazo[1,2-b]pyridazin-2-1)(4,4-difluorocyclohexyl)methyl)pyrimidine-5-carboxamide]	3300 nM
